The source of these data is article PMC12445440 (Journal of Medical Virology, 2025).

Series [1] relates to ZIKV^Br. In words: Virus yield reduction assay, ZIKV^Br on Huh-7 cells. The series is classed as cell-based, Zika virus.
The subject of series [2] is Huh-7 cells. In words: Cytotoxicity by WST-8, uninfected Huh-7 cells. Conditions: read-out: CC50 Huh-7; Table S2, this paper data. For orientation: Tetrazolium assays rely on reduction of a dye to a coloured formazan, in cell work by metabolically active cells.
Series [3] has as its system BVDV. The note with it: previously published data; Na = no detected antiviral activity; ref [18]-[22] of main text, [3] of supplement for PS1086, PS1100, PS1101; cited from earlier work.
Series [4] deals with Vero76. Details: method as in earlier work. The note with it: previously published data; ref [18]-[22] of main text, [3] of supplement for PS1086, PS1100, PS1101; cited from earlier work.
Series [5] can be described thus: Cytotoxicity by WST-8, uninfected Huh-7 cells. Conditions: human.
The test system of series [6] is ZIKV NS5. The experiment in a line: ZIKV protein synthesis by western blot (NS5), Vero E6 cells. The note with it: MOI 1, 1x, 5x, 10x EC50, 48 h. The series is classed as cell-based, Zika virus. As for the experimental part: (§1) Immunoblotting was performed as described.
(§2) Viral protein levels in cell lysates were analyzed by immunoblotting (Figure 3A,B), while virion release was assessed by quantifying ZIKV RNA in supernatants (Figure 3C).
(§3) Impact of treatment on ZIKV protein synthesis was evaluated on cell extracts analyzed by western blot using anti‐ ZIKV NS5, or anti‐GAPDH as a housekeeping control.
A general note: Immunoblotting shows a protein as a band on a membrane.

Series [7] has as its system ZIKV NS5. In words: ZIKV protein synthesis by western blot (NS5), Huh-7 cells. The series is classed as cell-based, Zika virus. Conditions: MOI 1, 1x, 5x, 10x EC50 (PS1097 0.6, 3, 6 μM; SOF 1.5, 7.5, 15 μM), 48 h. As for the experimental part:
as §1, §2, §3

For series [8], the system named is ZIKV^Br. The experiment in a line: Time-of-addition (TOA) experiments, ZIKV^Br in Huh-7 cells. The series is classed as cell-based, Zika virus. The note with it: Huh-7, ZIKV^Br MOI 1, 10x EC50 (PS1097 6 μM, SOF 15 μM), harvest 48 h p.i. As for the experimental part: PS1097 was added at 6 μM at 0, 2, 6, 12, 24, and 36 h p.i. SOF was used as a reference compound at 15 μM. At 48 h p.i., viral proteins were determined by western blot or by qRT‐PCR in cell lysates.
To elucidate the mechanism of PS1097 antiviral action, TOA experiments were conducted (Figure 4A). ZIKV^Br replication kinetics was assessed by quantifying viral genomic RNA and protein inside Huh‐7 cells at the times p.i. shown in Figure 4A. Viral RNA was detectable as of ~12 h p.i. (Figure 4D), whereas viral protein was visible after 24 h p.i. (Figure 4B,C). In parallel, cells were exposed to viral inoculum for 2 h. […] Then, they were harvested at 48 h p.i. Viral RNA in cells was measured by qRT‐PCR and inhibition relative to DMSO‐treated cells was calculated, as described by (Figure 4G).
Figure 4 (A) Experimental design of the Time Of Addition (TOA) assay for PS1097 and SOF. (B) ZIKV replication kinetics was determined on Huh‐7 cells infected at MOI 1for 2 h by western blot cell lysates prepared at the times shown. ZIKV NS5 and GAPDH were monitored with the antibodies in Supporting Information: Table S1. (C) Quantitative analysis of the results in B). (D) qRT‐PCR quantification of ZIKV RNA was carried out in ZIKV‐infected cells lysed at the times indicated on the x axis. (E) western blot of lysates of Huh‐7 cells harvested at 48 h p.i. where treatment with PS1097 or SOF was started as by A). (F) Quantitative analysis of the results in E). (G) ZIKV RNA was quantified in lysates of cells harvested at 48 h p.i. where treatment with PS1097 (red line) or SOF (green line) was started at the times p.i. indicated on the x axis. (H) Combined antiviral activity of PS1097 with SOF against ZIKV. Huh‐7 cells were infected with ZIKV then treated with PS1097 or SOF, alone or in combination, at the indicated concentrations. After 48 h p.i., supernatants were harvested and titrated for ZIKV yield. Two‐dimensional representation of dose–response interaction matrix was determined in synergyfinder.org. Color gradient indicates viral yield inhibition score (red‐highest score). […]

The mark [9] stands for this setting: Zika virus, Huh-7, 48 h, ZIKV^Br on Huh-7 cells, viral yield reduction, 48 h, 95% confidence interval in brackets.
Where [10] appears, read: Zika virus, Huh-7, read-out: EC50 ZIKV, Table S2, this paper data, Huh-7 cells, Na = no detected antiviral activity.

Like-named read-outs stand apart in the source and are kept apart here.

Broadly, the EC50 is the concentration that produces a half-maximal response. For `O=c1nc(NO)ccn1[C@@H]1O[C@H](CO)[C@@H](O)[C@H]1O` [EIDD-1931, β‐D‐N4‐hydroxycytidine, reference compound], in series [1] (Table S2, this paper data, Huh-7 cells, Na = no detected antiviral activity, read-out: EC50 ZIKV), the EC50 is 1700 nM. In addition, the CC50 in series [2] came out at 148 µM.
Consider `CC(C)c1nc2cc3cccnc3c(Cl)c2[nH]c1=O` [PS462], for which the concentration for a half-maximal effect (EC50) was more than 100000 nM in series [1] (setting [9]), 100000 nM in series [1] (setting [10]) and 5 µM in series [3]. For the same compound, the CC50 in series [4] was more than 100 µM. The compound further displayed a CC50 at 48 h in series [5] of 294 µM.
Take `Cn1c(=O)c(-c2cccs2)nc2c(Cl)c3ncccc3cc21` [PS1240]: the concentration for a half-maximal effect (EC50) in series [1] (setting [9]) was 2060 nM; in series [3], 2 µM. The CC50 in series [4] was more than 100 µM. Besides, the CC50 at 48 h in series [5] was 293 µM.
On to `NC(=O)c1ncn([C@@H]2O[C@H](CO)[C@@H](O)[C@H]2O)n1` [RBV, 1‐(b‐D‐ribofuranosyl)‐1H‐1,2,4‐triazole‐3‐carboxamide, reference compound], for which the EC50 in series [1] (Zika virus, ZIKV^Br on Huh-7 cells, viral yield reduction, 48 h, 95% confidence interval in brackets, read-out: EC50) is 8800 nM. The CC50 at 48 h in series [5] amounted to 144 µM.
As to `CC(C)OC(=O)[C@H](C)N[P@](=O)(OC[C@H]1O[C@@H](n2ccc(=O)[nH]c2=O)[C@](C)(F)[C@@H]1O)Oc1ccccc1` [SOF, Sofosbuvir, reference compound], the concentration giving a half-maximal response (EC50) turned out to be 1500 nM in series [1] (setting [9]) and 1530 nM in series [1] (setting [10]). In addition, in series [6], the “ZIKV protein content (NS5, western blot)” value is reported as “no effect on viral protein content”. In series [5], this compound gave a CC50 at 48 h of 282 µM. For the same compound, the “ZIKV protein expression (NS5, western blot)” value in series [7] was “completely abolished protein synthesis”. Also, the “Time of addition giving the strongest inhibition” value in series [8] is 0–6 h p.i.
